# According to ChEMBL document CHEMBL4265870, “Synthesis and biological evaluation of a new series of benzimidazole derivatives as antimicrobial, antiquorum-sensing and antitumor agents” (Eur J Med Chem, 2017):
# Activity calls are given as the source filed them. The calls are words filed in the database; no cut-off is given here.
# Key:
# Escherichia coli = assay: Antimicrobial activity against Escherichia coli by two fold serial dilution method; type: functional
# Bacillus cereus = assay: Antimicrobial activity against Bacillus cereus by two fold serial dilution method; type: functional
# Staphylococcus aureus = assay: Antimicrobial activity against Staphylococcus aureus by two fold serial dilution method; type: functional
# Aspergillus fumigatus = assay: Antimicrobial activity against Aspergillus fumigatus 293 by two fold serial dilution method; type: functional; conditions: Af293
# [1] = test system: Chromobacterium violaceum; assay: Antiquorum-sensing activity against Chromobacterium violaceum ATCC 12472 assessed as reduction in violacein production at 5000 ug/ml a=; type: functional
# HepG2 = assay: Cytotoxicity in human HepG2 cells assessed as reduction in cell viability by MTT assay; type: functional, cell-based
# HCT-116 = assay: Cytotoxicity in human HCT116 cells assessed as reduction in cell viability by MTT assay; type: functional, cell-based
# MCF7 = assay: Cytotoxicity in human MCF7 cells assessed as reduction in cell viability by MTT assay; type: functional, cell-based
# Calf thymus DNA = assay: Binding affinity to calf thymus DNA by TLC plate based assay; type: nucleic-acid assay; conditions: Bos taurus
# Ehrlich [2] = assay: Antitumor activity against mouse EAC cells implanted in Swiss mouse assessed as mouse survival time at 0.5 mg/mouse dosed for 9 days starting 1 day after tumor cell implantation (reference value: 14.5 days); type: functional
# Ehrlich [3] = assay: Antitumor activity against mouse EAC cells implanted in Swiss mouse assessed as increase in life span at 0.5 mg/mouse dosed for 9 days starting 1 day after tumor cell implantation relative to untreated control; type: functional
# Ehrlich [4] = assay: Antitumor activity against mouse EAC cells implanted in Swiss mouse assessed as tumor volume at 0.5 mg/mouse dosed for 9 days starting 1 day after tumor cell implantation (reference value: 9.85 ml); type: functional
# Ehrlich [5] = assay: Antitumor activity against mouse EAC cells implanted in Swiss mouse assessed as viable cell count per 100 ul at 0.5 mg/mouse dosed for 9 days starting 1 day after tumor cell implantation (reference value: 83.2 x 10^6/100 ul); type: functional
# Mus musculus [6] = assay: Toxicity in mouse EAC cells implanted Swiss mouse assessed as hemoglobin level at 0.5 mg/mouse dosed for 9 days starting 1 day after tumor cell implantation (reference value: 8.15 g/dl); type: organism-based; conditions: in vivo
# Mus musculus [7] = assay: Toxicity in mouse EAC cells implanted Swiss mouse assessed as RBC count at 0.5 mg/mouse dosed for 9 days starting 1 day after tumor cell implantation (reference value: 3.69 10^6/mm3)); type: organism-based; conditions: in vivo
# Mus musculus [8] = assay: Toxicity in mouse EAC cells implanted Swiss mouse assessed as WBC count at 0.5 mg/mouse dosed for 9 days starting 1 day after tumor cell implantation (reference value: 23.96 10^3/mm3)); type: organism-based; conditions: in vivo
# WI-38 = assay: Cytotoxicity in human WI38 cells assessed as reduction in cell viability by MTT assay; type: cell-based
structure (smiles),measurement,setting,value
CC1(C)S[C@@H]2[C@H](NC(=O)[C@H](N)c3ccccc3)C(=O)N2[C@H]1C(=O)O [AMPICILLIN],MIC,Escherichia coli,19.5 µg/mL
same,MIC,Bacillus cereus,1250 µg/mL
same,MIC,Staphylococcus aureus,312 µg/mL
CC1=NN(Cc2nc3cc([N+](=O)[O-])ccc3[nH]2)C(=O)C1,MIC,Escherichia coli,> 2500 µg/mL
same,MIC,Bacillus cereus,1250 µg/mL
same,MIC,Staphylococcus aureus,2500 µg/mL
same,MIC,Aspergillus fumigatus,625 µg/mL
same,diameter of the inhibition zone (DIZ),[1],3 mm
same,IC50,HepG2,265 µM
same,IC50,HCT-116,200 µM
same,IC50,MCF7,281 µM
O=[N+]([O-])c1ccc2[nH]c(CNc3nc(-c4ccccc4)cs3)nc2c1,MIC,Escherichia coli,> 2500 µg/mL
same,MIC,Bacillus cereus,> 2500 µg/mL
same,MIC,Staphylococcus aureus,> 2500 µg/mL
same,MIC,Aspergillus fumigatus,1250 µg/mL
same,diameter of the inhibition zone (DIZ),[1],6 mm
same,IC50,HepG2,226 µM
same,IC50,HCT-116,198 µM
same,IC50,MCF7,254 µM
Cc1c(NCc2nc3cc([N+](=O)[O-])ccc3[nH]2)c(=O)n(-c2ccccc2)n1C,MIC,Escherichia coli,2500 µg/mL
same,MIC,Bacillus cereus,1250 µg/mL
same,MIC,Staphylococcus aureus,625 µg/mL
same,MIC,Aspergillus fumigatus,2500 µg/mL
same,diameter of the inhibition zone (DIZ),[1],<2 mm
same,IC50,HepG2,93 µM
same,IC50,HCT-116,44 µM
same,IC50,MCF7,78 µM
Fc1ccc2nc(NCc3nc4ccccc4[nH]3)sc2c1,MIC,Escherichia coli,> 2500 µg/mL
same,MIC,Bacillus cereus,> 2500 µg/mL
same,MIC,Staphylococcus aureus,156 µg/mL
same,MIC,Aspergillus fumigatus,1250 µg/mL
same,diameter of the inhibition zone (DIZ),[1],11 mm
same,IC50,HepG2,233 µM
same,IC50,HCT-116,238 µM
same,IC50,MCF7,242 µM
same,Activity,Calf thymus DNA,Active
COc1ccc2c(c1)CCC/C2=N\NCc1nc2cc([N+](=O)[O-])ccc2[nH]1,MIC,Escherichia coli,> 2500 µg/mL
same,MIC,Bacillus cereus,> 2500 µg/mL
same,MIC,Staphylococcus aureus,> 2500 µg/mL
same,MIC,Aspergillus fumigatus,2500 µg/mL
same,diameter of the inhibition zone (DIZ),[1],<2 mm
same,IC50,HepG2,96 µM
same,IC50,HCT-116,45 µM
same,IC50,MCF7,78 µM
CC1=NN(Cc2nc3ccccc3[nH]2)C(=O)C1,MIC,Escherichia coli,> 2500 µg/mL
same,MIC,Bacillus cereus,1250 µg/mL
same,MIC,Staphylococcus aureus,156 µg/mL
same,MIC,Aspergillus fumigatus,312 µg/mL
same,diameter of the inhibition zone (DIZ),[1],4 mm
same,IC50,HepG2,54 µM
same,IC50,HCT-116,42 µM
same,IC50,MCF7,62 µM
same,MST,Ehrlich [2],31.5 days
same,ILS,Ehrlich [3],110.34%
same,Activity,Ehrlich [4],4.16 mL
same,Activity,Ehrlich [5],45.38 ×10⁶ No_unit
same,Activity,Mus musculus [6],11.47 g/dL
same,Activity,Mus musculus [7],4.55 ×10⁶ /mm3
same,Activity,Mus musculus [8],11.26 ×10³ /mm3
same,IC50,WI-38,246 µM
same,Activity,Calf thymus DNA,Active
Oc1cc(O)c2c(c1)O[C@H](c1ccc(O)c(O)c1)[C@@H](O)C2 [CIANIDANOL],diameter of the inhibition zone (DIZ),[1],2 mm
CC[n+]1c(-c2ccccc2)c2cc(N)ccc2c2ccc(N)cc21,Activity,Calf thymus DNA,Active
NS(=O)(=O)c1nnc(NCc2nc3ccccc3[nH]2)s1,MIC,Escherichia coli,625 µg/mL
same,MIC,Bacillus cereus,> 2500 µg/mL
same,MIC,Staphylococcus aureus,625 µg/mL
same,MIC,Aspergillus fumigatus,> 2500 µg/mL
same,diameter of the inhibition zone (DIZ),[1],<2 mm
same,IC50,HepG2,162 µM
same,IC50,HCT-116,156 µM
same,IC50,MCF7,228 µM
same,Activity,Calf thymus DNA,Active
NS(=O)(=O)c1nnc(NCc2nc3cc([N+](=O)[O-])ccc3[nH]2)s1,MIC,Escherichia coli,> 2500 µg/mL
same,MIC,Bacillus cereus,> 2500 µg/mL
same,MIC,Staphylococcus aureus,> 2500 µg/mL
same,MIC,Aspergillus fumigatus,> 2500 µg/mL
same,diameter of the inhibition zone (DIZ),[1],<2 mm
same,IC50,HepG2,184 µM
same,IC50,HCT-116,176 µM
same,IC50,MCF7,230 µM
